One series has as its target T1, human TLR3 (Homo sapiens, UniProt O15455).
T1 construct: host or cells: HEK293
T1 sequence (O15455 24-904): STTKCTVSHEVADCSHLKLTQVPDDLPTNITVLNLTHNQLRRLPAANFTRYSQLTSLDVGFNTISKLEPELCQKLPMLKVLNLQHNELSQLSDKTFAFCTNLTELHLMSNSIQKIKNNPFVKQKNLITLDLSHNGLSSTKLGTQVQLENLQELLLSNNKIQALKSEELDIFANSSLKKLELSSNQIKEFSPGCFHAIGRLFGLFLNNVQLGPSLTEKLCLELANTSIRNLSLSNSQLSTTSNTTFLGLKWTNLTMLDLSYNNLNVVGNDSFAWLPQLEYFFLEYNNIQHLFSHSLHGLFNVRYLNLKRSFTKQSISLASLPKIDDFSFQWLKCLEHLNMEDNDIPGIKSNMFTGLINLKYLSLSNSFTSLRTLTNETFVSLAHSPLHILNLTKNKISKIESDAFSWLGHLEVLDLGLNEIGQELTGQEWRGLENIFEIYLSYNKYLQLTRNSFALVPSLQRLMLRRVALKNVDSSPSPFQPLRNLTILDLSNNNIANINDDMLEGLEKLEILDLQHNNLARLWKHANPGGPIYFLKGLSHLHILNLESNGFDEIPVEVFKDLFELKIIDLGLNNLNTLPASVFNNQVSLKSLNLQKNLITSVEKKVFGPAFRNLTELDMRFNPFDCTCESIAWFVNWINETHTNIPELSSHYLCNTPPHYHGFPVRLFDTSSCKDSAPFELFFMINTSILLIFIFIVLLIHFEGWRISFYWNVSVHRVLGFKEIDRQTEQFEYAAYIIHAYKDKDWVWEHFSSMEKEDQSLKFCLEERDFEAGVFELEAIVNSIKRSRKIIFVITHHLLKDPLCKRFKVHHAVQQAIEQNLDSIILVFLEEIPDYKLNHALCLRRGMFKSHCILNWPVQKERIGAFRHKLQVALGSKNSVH
As to the kind of experiment: NF-κB activation (secreted alkaline phosphatase reporter) in HEK293 cells expressing human TLR3. Format: cell-based. The conditions noted are these: HEK293/hTLR3 cell line; polynucleotide final concentration 10 μg/mL; 16-20 hours. On the procedure:
(§1) Toll-like receptors (TLR) are known to interact with a number of natural and synthetic molecules that can function as immune adjuvants. Examples of these molecules are Poly (I:C) polynucleotides, lipopolysaccharide and CpG-containing polynucleotides. The interaction of non-DNA base-containing polynucleotides (SEQ ID NOs: 1-3) to interact with TLR and induce down-stream signaling was tested by assessing NF-κB activation in HEK293 cells expressing human TLR2, 3, 4, 5, 7, 8 and 9. TLR engagement was determined by measurement of secreted alkaline phosphatase, under the control of a reporter inducible by NF-κB. Appropriate positive controls were used for each TLR. The non-DNA base-containing polynucleotides were dissolved in sterile water at a concentration of 100 μg/mL, and used at a final concentration of 10 μg/mL. HEK293 cells containing the appropriate TLR and NF-κB reporting system (InvivoGen, San Diego, Calif., USA) were placed in wells of 96 well plates (25,000-50,000 cells, in a final volume of 200 μL medium designed for the detection of NF-κB induced secreted alkaline phosphatase expression), and incubated with non-DNA base-containing polynucleotides or positive controls for 16-20 hours. TLR activating activity was determined by measurement of absorbance at 650 nm wavelength using a Coulter AD340C absorbance detector. The results shown are expressed as Optical Density (OD).

A further series concerns the target T2, human TLR5 (Homo sapiens, UniProt O60602).
T2 construct: host or cells: HEK293
The series can be described thus: NF-κB activation (secreted alkaline phosphatase reporter) in HEK293 cells expressing human TLR5. The conditions noted are these: HEK293/hTLR5 cell line; polynucleotide final concentration 10 μg/mL; 16-20 hours. It is filed as cell-based. The procedure: as §1

T2 sequence (O60602 21-858): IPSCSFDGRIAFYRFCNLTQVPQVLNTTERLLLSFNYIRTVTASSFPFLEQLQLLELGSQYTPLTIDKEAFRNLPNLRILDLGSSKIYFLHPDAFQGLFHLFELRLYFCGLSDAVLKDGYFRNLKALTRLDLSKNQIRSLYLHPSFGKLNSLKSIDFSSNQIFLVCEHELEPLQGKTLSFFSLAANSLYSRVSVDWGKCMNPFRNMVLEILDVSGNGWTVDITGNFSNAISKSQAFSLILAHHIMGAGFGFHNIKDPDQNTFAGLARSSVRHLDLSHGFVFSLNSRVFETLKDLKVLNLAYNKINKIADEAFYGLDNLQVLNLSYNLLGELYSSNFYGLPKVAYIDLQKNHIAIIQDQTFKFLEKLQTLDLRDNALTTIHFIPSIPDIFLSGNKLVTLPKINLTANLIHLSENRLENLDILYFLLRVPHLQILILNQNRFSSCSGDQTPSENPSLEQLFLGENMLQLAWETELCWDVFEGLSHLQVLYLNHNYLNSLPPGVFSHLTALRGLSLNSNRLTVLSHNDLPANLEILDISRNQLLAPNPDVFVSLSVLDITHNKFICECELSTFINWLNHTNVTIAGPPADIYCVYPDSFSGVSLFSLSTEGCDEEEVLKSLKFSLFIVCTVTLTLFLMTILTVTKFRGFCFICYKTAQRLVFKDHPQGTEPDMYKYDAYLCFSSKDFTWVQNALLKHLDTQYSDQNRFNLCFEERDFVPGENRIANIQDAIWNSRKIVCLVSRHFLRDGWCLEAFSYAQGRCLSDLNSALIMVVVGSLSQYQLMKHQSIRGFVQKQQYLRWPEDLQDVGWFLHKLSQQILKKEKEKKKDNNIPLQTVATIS

In the case of UUGTUU [SEQ ID NO: 2], the “TLR activation, Optical Density at 650 nm, hTLR3” value (from here on “TLR activation … hTLR3”) at human TLR3 is 0.056. The “TLR activation, Optical Density at 650 nm, hTLR5” value (shortened to “TLR activation … hTLR5”) on human TLR5 came out at 0.143.

With “NebGGTGNeb (DNA NGGTGN; Nebularine at both ends, sugar and linkages not given here, further chemistry not given here) [SEQ ID NO: 1, 5′-OH, 3′-OH non-DNA base-containing polynucleotide]”, the “TLR activation … hTLR3” value with human TLR3 was determined as 0.055. In the series with human TLR5, the “TLR activation … hTLR5” value was 0.158.

On to IIGTII [SEQ ID NO: 3], for which, at human TLR3, the “TLR activation … hTLR3” value is on record as 0.057. The “TLR activation … hTLR5” value on human TLR5 is 0.155.
